Test system: HEK T-REx (Tet+) cells expressing TRPC5
Assay: LIVE/DEAD cell viability assay
Assay type: cell-based, human
Settings: AM237 up to 1 μM, 30 min
Experimental: Cell viability was assayed using the LIVE/DEAD® cell viability kit (Molecular Probes™, Eugene, Oregon, USA). HEK T‐REx expressing tetracycline‐inducible hTRPC5 were plated onto black, clear bottom poly‐D‐lysine‐coated 96‐well plates, at 25,000 cells per well, and TRPC5 protein expression was induced with 1 μg·ml^−1 tetracycline. Cells were cultured for 24 hr in DMEM‐F12 GlutaMAX (Invitrogen, Paisley, UK) containing 10% FBS, with the addition of blasticidin (10 μg·ml^−1) and zeocin (400 μg·ml^−1). For wells containing methanol‐treated positive control cells, medium was removed and 70% methanol/distilled water (100 μl) was added and cells returned to the incubator for 30 min. After incubation, the solution in each well was replaced with recording buffer (SBS with 0.01% pluronic acid and 0.05% DMSO; 100 μl). The LIVE/DEAD® (Molecular Probes™, Eugene, Oregon, US) cell viability kit was used to stain the cells. Calcein AM (5 μl) and ethidium homodimer‐1 (20 μl) were added to SBS with […] (10 ml). Compound and vehicle dilutions were carried out directly in LIVE/DEAD® solution and 100 μl of each was added to the recording buffer in each corresponding well. Cells were incubated for 30 min and immediately imaged. Imaging and analysis was carried out on the IncuCyte® ZOOM (Essen Bioscience, Welwyn Garden City, UK).

SMILES: Cn1c(=O)n(CCCO)c(=O)c2c1nc(Oc1ccc(Cl)c(OC(F)(F)F)c1)n2Cc1ccc(Cl)cc1 [AM237]
- Cell viability (LIVE/DEAD): did not lead to reduced

From paper PMC6811774, “Potent, selective, and subunit‐dependent activation of TRPC5 channels by a xanthine derivative” (British Journal of Pharmacology, 2019)
